# From publication PMC7815808, “Enzyme and lateral flow monoclonal antibody-based immunoassays to simultaneously determine spirotetramat and spirotetramat-enol in foodstuffs” (Scientific Reports, 2021)
# “And” between values parts separate entries of the source, which are not always exact repeats. Identical values can stand only once.
# Tests used:
# [1] = Spirotetramat hydrolysis study by direct cELISA; format: physicochemical
# Protocol: (§1) In order to simultaneously quantify SP and SP-enol contents in a sample, an in situ procedure for treating the sample with alkaline solution in order to hydrolyse SP into SP-enol was assessed. SP and SP-enol standard solutions were prepared in MilliQ water and diluted fivefold with 40 mM NaOH. The mixtures were incubated 10 min at room temperature and diluted twofold with dilution buffer (200 mM Tris·HCl buffer, pH 8.0, containing 280 mM NaCl). For the competitive step, enzyme tracer solutions were prepared in TBS-T (100 mM Tris·HCl buffer, pH 8.0, containing 140 mM NaCl and 0.05% (v/v) Tween-20). As shown in the inset of Table 2, the obtained standard curves of SP-enol and hydrolysed SP were almost identical. This hydrolysis procedure was validated by HPLC‒MS/MS. SP and SP-enol aqueous solutions (50 µg/mL) were treated with NaOH and, 10 min later, the pH was lowered as previously described. Then, 10 µL of hydrolysed and diluted sample was transferred into 990 µL of acetonitrile and dried with anhydrous MgSO4. Controls without the hydrolysis step were also evaluated. Finally, the contents of SP, SP-enol, SP-keto, and SP-mono in the organic extracts were quantified (Table 2). […] Those samples were also analysed with the studied direct cELISA by running SP-enol standard solutions that had been incubated in NaOH and diluted with dilution buffer like the samples. […] Consequently, the developed hydrolysis procedure seemed to perform adequately for SP and SP-enol residue quantification as SP-enol equivalents.
# mAbs to SP and SP-enol = test: Direct cELISA, binding of analytes and other pesticides by the generated mAbs; set-up: species or system mouse; conditions: for binding by the antibodies: other pesticides, insecticides and fungicides
# Excerpt: Six mouse mAbs were obtained; three were from immunogen BSA‒SPm—named SPm#23, SPm#25, and SPm#216—and three from conjugate BSA‒SPo—named SPo#227, SPo#237, and SPo#243. These antibodies contained κ light chains and were of the IgG1 isotype, except mAb SPm#25 which was IgG2a. The affinity to SP and SP-enol was studied by checkerboard cELISA in the capture antibody-coated direct format, using homologous and heterologous enzyme tracers (with the same or different hapten, respectively, than the immunizing conjugate). SP and SP-enol standards were prepared in PBS (10 mM phosphate buffer, pH 7.4, with 140 mM NaCl) and tracer solutions for the competitive step were prepared in PBS-T (PBS containing 0.05% (v/v) Tween-20). […] Tracers with linker site heterologies were not bound by the antibodies. The only exception was mAb SPm#23 which did recognize the heterologous HRP‒SPh conjugate. For this antibody, the spacer arm of hapten SPh was located at a more proximal site than that of hapten […]. The lowest IC50 value with the homologous tracer was around 3 nM for SP-enol whereas binding to SP was moderate (IC50 values were higher than 30 nM).
# (§2) Concerning specificity, the two assayed immunogens (BSA‒SPm and BSA‒SPo) afforded equivalent results. […] Cross-reactivity with the main SP metabolites was studied with antibody SPm#23.
# (§3) Microplates were precoated with GAM in order to immobilise the mAb. The competitive step was carried out by mixing the analyte solution or diluted sample with the enzyme tracer solution. Standard curves were built in borosilicate glass tubes from 0.03 to 30 nM by a threefold serial dilution of the most concentrated standard solution, and a blank (no analyte) was also run. Concentrated stock solutions of the analytes in anhydrous DMF were used to prepare the most concentrated standard solution—the DMF concentration was always lower than 0.1% (v/v). The complete immunoassay procedure can be found in the Supplementary Information file.
# (§4) Table S1. Specificity of the
# (§5) 7. Direct competitive ELISA procedure
# (§6) The same protocol previously described for this format was applied.7 Briefly, plates were coated with 100 µL per well of 1 µg/mL GAM solution in carbonate‒bicarbonate buffer, pH 9.6, by overnight incubation at 4 °C. Wells were washed four times with washing solution (150 mM NaCl with 0.05% (v/v) Tween-20) after each incubation step. Then, 100 µL per well of specific mAb solution in PBS-T was added and plates were incubated at room temperature during 1 h. The competitive reaction was carried out by adding 50 µL per well of analyte solution or diluted sample and 50 µL per well of tracer […]
# (§7) enzyme substrate solution (2 mg/mL o-phenylendiamine and 0.012% (v/v) H2O2 in 25 mM sodium citrate and 62 mM sodium phosphate buffer, pH 5.4). Ten minutes later, the enzyme reaction was stopped by adding 100 µL per well of 1 M H2SO4.
# 8. Influence of pH and ionic strength […]
# (§8) 7 E. Ceballos-Alcantarilla, D. López-Puertollano, C. Agulló, A. Abad-Fuentes, A. Abad-Somovilla, J. V. Mercader.
# Combined heterologies for monoclonal antibody-based immunoanalysis of fluxapyroxad. Analyst 143, 5718‒
# mAb SPm#23 [2] = test: Antibody specificity (cross-reactivity) of the selected mAb; format: binding, mouse; conditions: for CR (%): cross-reactivity of the selected mAb, SP-enol = 100, n=3
# Protocol: as §2, §3, §4, §5, §6, §7
# 8. Influence of pH and ionic strength
# Figure S5. Influence of pH and ionic strength over the Amax and IC50 values of the spirotetramat-enol standard curve of the studied direct cELISA.
# as §8
# Combined heterologies for monoclonal antibody-based immunoanalysis of fluxapyroxad. Analyst 143, 5718‒ […]
# mAb SPm#23 [3] = test: Optimized direct cELISA (mAb SPm#23 with tracer HRP–SPh), SP-enol standard curve; format: binding, mouse
# Protocol: as §1
# The sigmoidal inhibition curve obtained for SP-enol and the final assay conditions of the developed direct cELISA are provided in Table 3. […] The Amax value of the standard curve was near 1.0, the slope was − 1.4, and the background signal was negligible.
# as §3
# The absorbance of each microplate well was immediately read at 492 nm using a reference wavelength at 650 nm, and values were processed with KCJunior software from BioTek Instruments. The SigmaPlot Version 14.0 was used to fit the experimental values to a standard four-parameter logistic curve. Immunoassay sensitivity was estimated as the concentration of analyte affording a 50% decrease (IC50) of the maximum absorbance (Amax) obtained in the absence of analyte. The LOD of the assay was defined as the IC10 of the sigmoidal inhibition curve. The LOQ was experimentally determined as the lowest analyte concentration that provided accurate and precise results using fortified food samples. […]
# as §5
# The same protocol previously described for this format was applied.7 Briefly, plates were coated with 100 µL per well of 1 µg/mL GAM solution in carbonate‒bicarbonate buffer, pH 9.6, by overnight incubation at 4 °C. Wells were washed four times with washing solution (150 mM NaCl with 0.05% (v/v) Tween-20) after each incubation step. […]
# [4] = Spirotetramat hydrolysis study by HPLC‒MS/MS; format: physicochemical; set-up: content found by HPLC–MS/MS, sample treatment A / content found by HPLC–MS/MS, sample treatment B / content found by HPLC–MS/MS, sample treatment C / content found by HPLC–MS/MS, sample treatment D: unit not given beside the values; conditions: for content found by HPLC–MS/MS, sample treatment A: SP hydrolysed (40 mM NaOH, 10 min, room temperature); for content found by HPLC–MS/MS, sample treatment B: SP without hydrolysis; for content found by HPLC–MS/MS, sample treatment C: SP-enol hydrolysed (40 mM NaOH, 10 min, room temperature)
# Protocol: as §1
# SP, SP-enol, SP-keto, and SP-mono standard solutions were prepared by serial dilution in acetonitrile from 1 to 2500 μg/L in amber glass vials and kept at − 20 °C. The injection volume was 5 µL and the column temperature was 45 °C. The analysis was carried out using a C18 reverse phase column with a gradient of 0.2% (v/v) formic acid in water (A) and acetonitrile (B) as mobile phase at a flow rate of 0.3 mL/min. The elution profile was 0‒3 min, from 5% B to 95% B, 3.0‒3.5 min, 95% B, 3.5‒3.6 min, from 95% B to 5% B, and 3.6‒8 min, 5% B. Spectra were acquired in positive ionization multiple reaction monitoring mode with interchannel delay of 0.02 s.
# [5] = SPm#23 100 μg/L, HRP–SPh 30 μg/L, Tris·HCl pH 8.0, after 40 mM NaOH step, n = 5
smiles,measurement,setting,value
"CO[C@H]1CC[C@]2(CC1)NC(=O)C(c1cc(C)ccc1C)=C2O [SP-enol, spirotetramat-enol]",recovery measured as SP-enol by direct cELISA,[1]; incubated in NaOH solution (samples A and C),117.6%
same,recovery measured as SP-enol by direct cELISA,[1]; non-hydrolysed control solution (samples B and D),118.0%
same,IC50,"mAbs to SP and SP-enol; homologous tracer, read-out: lowest IC50 value with the homologous tracer",~3 nM
same,CR (%),mAb SPm#23 [2],100%
same,LOD (μg/L) (IC10),"mAb SPm#23 [3]; IC10 of the SP-enol inhibition curve, n = 5",0.02 µg/L and 0.022 ± 0.004 µg/L
same,IC50,mAb SPm#23 [3]; [5],0.34 nM and 0.344 nM
same,IC50 SP-enol,mAb SPm#23 [3]; [5],0.1 ng/mL and 0.104 ± 0.007 ng/mL
same,IC50 value for the sum of spirotetramat and spirotetramat-enol,"mAb SPm#23 [3]; direct cELISA, heterologous bioconjugate",0.1 ng/mL
same,fate on incubation in basic solution,"[4]; 40 mM NaOH, 10 min, room temperature, HPLC‒MS/MS",remained unmodified
same,"content found by HPLC–MS/MS, sample treatment A",[4],116.7
same,"content found by HPLC–MS/MS, sample treatment B",[4],1.44
same,"content found by HPLC–MS/MS, sample treatment C",[4]; C,149.1
same,"Recovery (%), sample treatment C","[4]; C, SP-enol hydrolysed, HPLC–MS/MS",119.6%
same,"content found by HPLC–MS/MS, sample treatment D","[4]; D, SP-enol without hydrolysis",142.8
same,"Recovery (%), sample treatment D","[4]; D, SP-enol without hydrolysis, HPLC–MS/MS",114.6%
"COC1CCC2(CC1)NC(=O)C(c1cc(C)ccc1C)=C2O[C@@H]1O[C@H](CO)[C@@H](O)[C@H](O)[C@H]1O (some centres unmarked) [SP-glu, spirotetramat-enol-glucoside]",CR (%),mAb SPm#23 [2],5.11%
same,"affinity to SP-enol, times higher than to the analyte",mAb SPm#23 [2]; mAb SPm#23,≥ 20 times
"COC1CCC2(CC1)NC(=O)C(O)(c1cc(C)ccc1C)C2=O (centres unmarked) [SP-keto, spirotetramat-ketohydroxy]",CR (%),mAb SPm#23 [2],0.02%
same,binding,mAb SPm#23 [2]; mAb SPm#23,almost negligible
same,"content found by HPLC–MS/MS, sample treatment A",[4],0.09
same,"content found by HPLC–MS/MS, sample treatment B",[4],0.08
same,"content found by HPLC–MS/MS, sample treatment C",[4]; C,0.39
same,"content found by HPLC–MS/MS, sample treatment D","[4]; D, SP-enol without hydrolysis",0.43
"COC1CCC2(CC1)NC(=O)C(c1cc(C)ccc1C)C2O (centres unmarked) [SP-mono, spirotetramat-monohydroxy]",CR (%),mAb SPm#23 [2],0.19%
same,binding,mAb SPm#23 [2]; mAb SPm#23,almost negligible
same,"content found by HPLC–MS/MS, sample treatment A",[4],0.01
same,"content found by HPLC–MS/MS, sample treatment B",[4],0.12
same,"content found by HPLC–MS/MS, sample treatment C",[4]; C,0.02
same,"content found by HPLC–MS/MS, sample treatment D","[4]; D, SP-enol without hydrolysis",0.02
CO/C=C(/C(=O)OC)c1ccccc1Oc1cc(Oc2ccccc2C#N)ncn1 [azoxystrobin],binding by the antibodies,mAbs to SP and SP-enol,did not bind
O=C(Nc1ccccc1-c1ccc(Cl)cc1)c1cccnc1Cl [boscalid],binding by the antibodies,mAbs to SP and SP-enol,did not bind
N#Cc1c(Cl)c(Cl)c(Cl)c(C#N)c1Cl [chlorothalonil],binding by the antibodies,mAbs to SP and SP-enol,did not bind
Cc1cc(C2CC2)nc(Nc2ccccc2)n1 [cyprodinil],binding by the antibodies,mAbs to SP and SP-enol,did not bind
CC1(C)[C@H](C(=O)O[C@H](C#N)c2cccc(Oc3ccccc3)c2)[C@@H]1C=C(Br)Br [deltamethrin],binding by the antibodies,mAbs to SP and SP-enol,did not bind
CNC(=O)/C(=N/OC)c1ccccc1COc1cc(C)ccc1C [dimoxystrobin],binding by the antibodies,mAbs to SP and SP-enol,did not bind
CSC1=N[C@@](C)(c2ccccc2)C(=O)N1Nc1ccccc1 [fenamidone],binding by the antibodies,mAbs to SP and SP-enol,did not bind
CC1(C(=O)Nc2ccc(O)c(Cl)c2Cl)CCCCC1 [fenhexamid],binding by the antibodies,mAbs to SP and SP-enol,did not bind
CC(Cc1ccc(C(C)(C)C)cc1)CN1C[C@@H](C)O[C@@H](C)C1 (some centres unmarked) [fenpropimorph],binding by the antibodies,mAbs to SP and SP-enol,did not bind
N#Cc1c[nH]cc1-c1cccc2c1OC(F)(F)O2 [fludioxonil],binding by the antibodies,mAbs to SP and SP-enol,did not bind
O=[N+]([O-])NC1=NCCN1Cc1ccc(Cl)nc1 [imidacloprid],binding by the antibodies,mAbs to SP and SP-enol,did not bind
C#CCOc1ccc(CCNC(=O)C(OCC#C)c2ccc(Cl)cc2)cc1OC (centres unmarked) [mandipropamid],binding by the antibodies,mAbs to SP and SP-enol,did not bind
Oc1ccccc1-c1ccccc1 [o-phenylphenol],binding by the antibodies,mAbs to SP and SP-enol,did not bind
CC12CC1(C)C(=O)N(c1cc(Cl)cc(Cl)c1)C2=O (centres unmarked) [procymidone],binding by the antibodies,mAbs to SP and SP-enol,did not bind
CCCOC(=O)NCCCN(C)C [propamocarb],binding by the antibodies,mAbs to SP and SP-enol,did not bind
COC(=O)N(OC)c1ccccc1COc1ccn(-c2ccc(Cl)cc2)n1 [pyraclostrobin],binding by the antibodies,mAbs to SP and SP-enol,did not bind
Cc1cc(C)nc(Nc2ccccc2)n1 [pyrimethanil],binding by the antibodies,mAbs to SP and SP-enol,did not bind
CCC(C)(C)C(=O)OC1=C(c2ccc(Cl)cc2Cl)C(=O)OC12CCCCC2 [spirodiclofen],binding by the antibodies,mAbs to SP and SP-enol,did not bind
Cc1cc(C)c(C2=C(OC(=O)CC(C)(C)C)C3(CCCC3)OC2=O)c(C)c1 [spiromesifen],binding by the antibodies,mAbs to SP and SP-enol,did not bind
CCCN(CC)CC1COC2(CCC(C(C)(C)C)CC2)O1 (centres unmarked) [spiroxamine],binding by the antibodies,mAbs to SP and SP-enol,did not bind
c1ccc2[nH]c(-c3cscn3)nc2c1 [thiabendazole],binding by the antibodies,mAbs to SP and SP-enol,did not bind
